Literature values, collected in patent publication US11039992B2, “Stable redox compositions and methods of use” (Reoxcyn, LLC, priority 2017, dated 2021).

Conditions: pH-neutral aqueous solution (pH around 7.0) at room temperature

## O=[O+][O-] [ozone]
  half-life: about 20 minutes
